# According to the supplement of paper PMC11208160:
# Assay: recombinant UMI read abundance after kanamycin selection (control-corrected) (log10(CPM+1)); higher = more efficient recombination; extreme values may be limits of the assay; sequences stand for … in AGTGCAGAGAAAATCGGCCAGTTTTCTCTGCCTGCAGTCCGCATGCCGTGGGACCCCTTGGGTTCTAACCTGTTGCCTAGATTTATGCAGCGGACTGCCTTTCTCCCAAAGTGATAAACCGG…AGGTTGGTTTCACT; site = the 11-nt donor
# Method in brief: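 Two replicates each of selected and unselected plating were used in this pooled Escherichia coli screen of donor and donor-binding-loop pairs for the IS621 bridge recombinase. Selection was with IPTG (0.07 mM) and kanamycin. Counts of recombinant UMIs, amplified across the donor–target junction, were converted to CPM, averaged, scaled by control-derived factors and reported as log10(CPM+1).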
# 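Also: IS621 bridge recombinase in Escherichia coli cells against a fixed T5 target plasmid.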
row,Sequence,recombinant UMI read abundance (log10)
1,GCGAAAACATGGACCGGTTTTCCCGGTAATCCGTATTTGCT (site GCGGAAACTAG),1.21
2,GCGAAAACATGGACCGGTTTTCCCGGTAATCCGTATTTGCT (site GCGTAAACTAG),1.73
3,GCGAAAACATGGACCGGTTTTCCCGGTAATCCGTATTTGCT (site GCTAAAACTAG),0
4,GCGAAAACATGGACCGGTTTTCCCGGTAATCCGTATTTGCT (site GGGAAAACTAG),0
5,GCGAAAACATGGACCGGTTTTCCCGGTAATCCGTATTTGCT (site GTGAAAACTAG),0
6,GCGAAAACATGGACCGGTTTTCCCGGTAATCCGTATTTGCT (site TCGAAAACTAG),0
7,GCGAAGCCATGGACCGGTTTTCCCGGTAATCCGTATTTGCG (site GCGAAGCCTCA),0.0182
8,GCGAAGCCATGGACCGGTTTTCCCGGTAATCCGTATTTGCG (site GCGAAGCCTCC),0.0276
9,GCGAAGCCATGGACCGGTTTTCCCGGTAATCCGTATTTGCG (site GCGAAGCCTCG),0.845
10,GCGAAGCCATGGACCGGTTTTCCCGGTAATCCGTATTTGCG (site GCGAAGCCTCT),0.455
11,GCGAAGGCATGGACCGGTTTTCCCGGTAATCCGTATTTGGG (site GCGAAGACTCC),0.255
12,GCGAAGGCATGGACCGGTTTTCCCGGTAATCCGTATTTGGG (site GCGAAGCCTCC),0.00939
13,GCGAAGGCATGGACCGGTTTTCCCGGTAATCCGTATTTGGG (site GCGAAGGCTCC),0.562
14,GCGAAGGCATGGACCGGTTTTCCCGGTAATCCGTATTTGGG (site GCGAAGTCTCC),0.779
15,GCGAATACATGGACCGGTTTTCCCGGTAATCCGTATTTGCT (site GCGAAAACTAG),0
16,GCGAATACATGGACCGGTTTTCCCGGTAATCCGTATTTGCT (site GCGAACACTAG),0
17,GCGAATACATGGACCGGTTTTCCCGGTAATCCGTATTTGCT (site GCGAAGACTAG),0
18,GCGAATACATGGACCGGTTTTCCCGGTAATCCGTATTTGCT (site GCGAATACTAG),0
19,GCGAATGCATGGACCGGTTTTCCCGGTAATCCGTATTTGGA (site GCGAATGCTTC),1.42

row,Sequence,recombinant UMI read abundance (log10)
1,GCGACGCCATGGACCGGTTTTCCCGGTAATCCGTATTTGGG (site GCGAAGCCTCC),0.0164
2,GCGACGCCATGGACCGGTTTTCCCGGTAATCCGTATTTGGG (site GCGACGCCTCC),0.00484
3,GCGACGCCATGGACCGGTTTTCCCGGTAATCCGTATTTGGG (site GCGAGGCCTCC),0.0192
4,GCGACGCCATGGACCGGTTTTCCCGGTAATCCGTATTTGGG (site GCGATGCCTCC),0.00415
5,GCGATAACATGGACCGGTTTTCCCGGTAATCCGTATTTGCT (site GCGAAAACTAG),0
6,GCGATAACATGGACCGGTTTTCCCGGTAATCCGTATTTGCT (site GCGACAACTAG),0.00488
7,GCGATAACATGGACCGGTTTTCCCGGTAATCCGTATTTGCT (site GCGAGAACTAG),0
8,GCGATAACATGGACCGGTTTTCCCGGTAATCCGTATTTGCT (site GCGATAACTAG),2.43
9,GCGATACCATGGACCGGTTTTCCCGGTAATCCGTATTTGAT (site GCGATACCTAT),0
10,GCGATTCCATGGACCGGTTTTCCCGGTAATCCGTATTTGTA (site GCGATTCCTTA),1.49
11,GCGCATGCATGGACCGGTTTTCCCGGTAATCCGTATTTGGT (site GAGCATGCTAC),0.595
12,GCGCATGCATGGACCGGTTTTCCCGGTAATCCGTATTTGGT (site GCGCATGCTAC),1.14
13,GCGCATGCATGGACCGGTTTTCCCGGTAATCCGTATTTGGT (site GGGCATGCTAC),0.0133
14,GCGCATGCATGGACCGGTTTTCCCGGTAATCCGTATTTGGT (site GTGCATGCTAC),0.622
15,GCGCCTCCATGGACCGGTTTTCCCGGTAATCCGTATTTGGG (site GCGCCTCCTCC),0.0195
16,GCGCGCTCATGGACCGGTTTTCCCGGTAATCCGTATTTGAA (site GCGCGCTCTTT),1.82
17,GCGCTCACATGGACCGGTTTTCCCGGTAATCCGTATTTGCC (site GCGCTCACTGG),2.47
18,GCGGACACATGGACCGGTTTTCCCGGTAATCCGTATTTGCT (site GCGGACACTAG),2.44
19,GCGGAGGCATGGACCGGTTTTCCCGGTAATCCGTATTTGTG (site GAGGAGGCTCA),0.367

row,Sequence,recombinant UMI read abundance (log10)
1,GCGGAGGCATGGACCGGTTTTCCCGGTAATCCGTATTTGTG (site GCGGAGGCTCA),1.37
2,GCGGAGGCATGGACCGGTTTTCCCGGTAATCCGTATTTGTG (site GGGGAGGCTCA),0.333
3,GCGGAGGCATGGACCGGTTTTCCCGGTAATCCGTATTTGTG (site GTGGAGGCTCA),0.832
4,GCGGCATCATGGACCGGTTTTCCCGGTAATCCGTATTTGTC (site GCGGCATCTGA),2.21
5,GCGGGCGCATGGACCGGTTTTCCCGGTAATCCGTATTTGAT (site GCGGGCGCTAT),1.44
6,GCGGGTGCATGGACCGGTTTTCCCGGTAATCCGTATTTGCC (site GCGGGTGCTGG),1.43
7,GCGGTTCCATGGACCGGTTTTCCCGGTAATCCGTATTTGTC (site GCGGTTCCTGA),0
8,GCGTAGGCATGGACCGGTTTTCCCGGTAATCCGTATTTGCT (site GCGTAGGCTAG),2.51
9,GCGTCAACATGGACCGGTTTTCCCGGTAATCCGTATTTGCG (site GCGTCAACTCG),0.00614
10,GCGTCGTCATGGACCGGTTTTCCCGGTAATCCGTATTTGTT (site GCGTCGTCTAA),0.947
11,GCTACCTCATGGACCGGTTTTCCCGGTAATCCGTATTTGTC (site GCTACCTCTGA),2.17
12,GCTACGCCATGGACCGGTTTTCCCGGTAATCCGTATTTGTA (site GCAACGCCTTA),0.00895
13,GCTACGCCATGGACCGGTTTTCCCGGTAATCCGTATTTGTA (site GCCACGCCTTA),0.0278
14,GCTACGCCATGGACCGGTTTTCCCGGTAATCCGTATTTGTA (site GCGACGCCTTA),0.162
15,GCTACGCCATGGACCGGTTTTCCCGGTAATCCGTATTTGTA (site GCTACGCCTTA),0.343
16,GCTACTCCATGGACCGGTTTTCCCGGTAATCCGTATTTGCC (site GCTACTACTGG),0
17,GCTACTCCATGGACCGGTTTTCCCGGTAATCCGTATTTGCC (site GCTACTCCTGG),0
18,GCTACTCCATGGACCGGTTTTCCCGGTAATCCGTATTTGCC (site GCTACTGCTGG),0
19,GCTACTCCATGGACCGGTTTTCCCGGTAATCCGTATTTGCC (site GCTACTTCTGG),0.0501
